# Experimental data as given in patent US20140121216A1, “INDOLEAMINE DERIVATIVES FOR THE TREATMENT OF CENTRAL NERVOUS SYSTEM DISEASES” (Adamed Sp. z o.o., priority 2011, published 2014).
# Tests used:
# [1] = tested on: α1 adrenergic receptors (rat cerebral cortex); experiment: Binding assay, α1 adrenergic receptor ([3H]prazosin); settings: compound 1×10^−6 M
# Method: (§1) The specific ligand binding to the receptors is defined as the difference between the total binding and the non-specific binding determined in the presence of an excess of unlabelled ligand.
# (§2) The inhibition constants (Ki) were calculated using the Cheng Prusoff equation (Ki=IC50/(1+(L/KD)), where L=concentration of radioligand in the assay, and KD=affinity of the radioligand for the receptor). A Scatchard plot is used to determine the Kd. The IC50 values (concentration causing a half-maximal inhibition of control specific binding) and Hill coefficients (nH) were determined by non-linear regression analysis of the competition curves generated with mean replicate values using Hill equation curve fitting (Y=D+[(A−D)/(1+(C/C50)^nH)], where Y=specific binding, D=minimum specific binding, A=maximum specific binding, C=compound concentration, C50=IC50, and nH=slope factor). This analysis was performed using a software developed at Cerep (Hill software) and validated by comparison with data generated by the commercial software SigmaPlot® 4.0 for Windows® (©1997 by SPSS Inc.).
# Experimental conditions for tests are given in Table 7, and results of tests for representative compounds are given in Tables 8a and 8b (α1 receptors) and in Tables 9a and 9b (α2C receptors).
# [2] = biological target: T1, 5-HT6 (h), human recombinant (CHO cells) (Homo sapiens, UniProt P50406); experiment: Cellular functional assay 5-HT6 (h) agonism; type: cell-based; settings: compound 1×10^−6 M, control 10 μM serotonin, read-out: 5-HT6-ag [%]
# T1 construct: expressed in transfected cells; host or cells: CHO cells
# T1 sequence (P50406 whole entry): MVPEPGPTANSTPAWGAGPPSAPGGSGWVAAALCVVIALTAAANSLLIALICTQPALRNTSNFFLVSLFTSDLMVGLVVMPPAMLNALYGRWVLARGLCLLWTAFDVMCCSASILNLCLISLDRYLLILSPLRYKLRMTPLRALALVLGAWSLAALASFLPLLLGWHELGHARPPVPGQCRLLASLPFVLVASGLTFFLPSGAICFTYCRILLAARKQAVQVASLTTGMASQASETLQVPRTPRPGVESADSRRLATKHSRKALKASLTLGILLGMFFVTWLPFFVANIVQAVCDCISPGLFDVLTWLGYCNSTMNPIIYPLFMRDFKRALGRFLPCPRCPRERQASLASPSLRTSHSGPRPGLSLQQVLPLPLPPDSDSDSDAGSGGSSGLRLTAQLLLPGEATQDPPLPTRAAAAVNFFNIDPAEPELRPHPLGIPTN
# Method: (§3) The results are expressed as a percent of control specific agonist response ((measured specific response/control specific agonist response)×100) obtained in the presence of tested compound.
# (§4) The EC50 values (concentration producing a half-maximal specific response) and IC50 values (concentration causing a half-maximal inhibition of the control specific agonist response) were determined by non-linear regression analysis of the concentration-response curves generated with mean replicate values using Hill equation curve fitting (Y=D+[(A−D)/(1+(C/C50)nH)], where Y=specific response, D=minimum specific response, A=maximum specific response, C=compound concentration, and C50=EC50 or IC50, and nH=slope factor).
# (§5) For the antagonists, the apparent dissociation constants (Kb) were calculated using the modified Cheng Prusoff equation (Kb=IC50/(1+(A/EC50A)), where A=concentration of reference agonist in the assay, and EC50A=EC50 value of the reference agonist).
# [3] = biological target: T2, D2S (h), human recombinant (HEK-293 cells) (Homo sapiens, UniProt P14416); experiment: Cellular functional assay D2S (h) agonism; type: cell-based; settings: HEK293; compound 1×10^−6 M; control 3 μM dopamine; read-out: D2-ag [%]
# T2 construct: expressed in transfected cells; host or cells: HEK-293 cells
# T2 sequence (P14416 1-414 isoform P14416-2): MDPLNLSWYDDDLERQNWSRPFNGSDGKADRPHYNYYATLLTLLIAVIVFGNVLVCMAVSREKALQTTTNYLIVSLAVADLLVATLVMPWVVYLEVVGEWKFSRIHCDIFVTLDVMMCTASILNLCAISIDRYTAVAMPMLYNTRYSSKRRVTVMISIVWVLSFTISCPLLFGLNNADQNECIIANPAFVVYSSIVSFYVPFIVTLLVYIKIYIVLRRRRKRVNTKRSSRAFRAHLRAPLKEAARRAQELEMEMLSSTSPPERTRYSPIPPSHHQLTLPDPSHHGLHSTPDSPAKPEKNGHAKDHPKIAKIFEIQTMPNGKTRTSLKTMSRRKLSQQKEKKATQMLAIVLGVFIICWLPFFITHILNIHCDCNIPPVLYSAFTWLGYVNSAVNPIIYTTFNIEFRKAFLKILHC
# Method: as §3, §4, §5
# [4] = biological target: T1, 5-HT6 (h), human recombinant (CHO cells); experiment: Cellular functional assay 5-HT6 (h) antagonism; type: cell-based; settings: compound 1×10^−6 M, stimulus serotonin 100 nM, read-out: 5-HT6-antag [%]
# Method: as §3, §4, §5
# [5] = biological target: T2, D2S (h), human recombinant (HEK-293 cells); experiment: Cellular functional assay D2S (h) antagonism; type: cell-based; settings: HEK293; compound 1×10^−6 M; stimulus dopamine 30 nM; read-out: D2-antag [%]
# Method: as §3, §4, §5
# [6] = biological target: T3, human recombinant D3 receptors (Homo sapiens, UniProt P35462); experiment: Binding assay, dopaminergic D3 receptor ([3H]methylspiperone); settings: compound 1×10^−6 M
# T3 construct: purchased PerkinElmer
# T3 sequence (P35462 whole entry): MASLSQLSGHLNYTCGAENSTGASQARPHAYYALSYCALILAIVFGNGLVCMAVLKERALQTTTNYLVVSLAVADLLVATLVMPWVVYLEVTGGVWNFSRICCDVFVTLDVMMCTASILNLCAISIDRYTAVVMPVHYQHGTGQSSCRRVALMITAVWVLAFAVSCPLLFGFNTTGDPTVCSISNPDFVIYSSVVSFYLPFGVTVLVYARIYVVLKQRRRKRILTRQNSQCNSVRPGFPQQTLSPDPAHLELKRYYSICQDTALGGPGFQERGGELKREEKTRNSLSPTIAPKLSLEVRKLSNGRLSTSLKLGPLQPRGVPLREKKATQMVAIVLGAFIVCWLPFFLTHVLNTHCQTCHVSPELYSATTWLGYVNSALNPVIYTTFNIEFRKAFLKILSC
# Method: (§6) Moreover, ability of the compounds of the invention to block potassium channel hERG was tested.
# as §1
# as §2, with “factor).” for “factor). This analysis was performed using a software developed at Cerep (Hill software) and validated by comparison with data generated by the commercial software SigmaPlot® 4.0 for Windows® (©1997 by SPSS Inc.).”
# [7] = biological target: 5-HT2A receptor, human recombinant (Homo sapiens, UniProt P28223); experiment: Binding assay, 5-HT2A receptor ([3H]ketanserin); set-up: purchased PerkinElmer; settings: compound 1×10^−6 M
# Chain of 5-HT2A receptor, human recombinant (P28223 whole entry): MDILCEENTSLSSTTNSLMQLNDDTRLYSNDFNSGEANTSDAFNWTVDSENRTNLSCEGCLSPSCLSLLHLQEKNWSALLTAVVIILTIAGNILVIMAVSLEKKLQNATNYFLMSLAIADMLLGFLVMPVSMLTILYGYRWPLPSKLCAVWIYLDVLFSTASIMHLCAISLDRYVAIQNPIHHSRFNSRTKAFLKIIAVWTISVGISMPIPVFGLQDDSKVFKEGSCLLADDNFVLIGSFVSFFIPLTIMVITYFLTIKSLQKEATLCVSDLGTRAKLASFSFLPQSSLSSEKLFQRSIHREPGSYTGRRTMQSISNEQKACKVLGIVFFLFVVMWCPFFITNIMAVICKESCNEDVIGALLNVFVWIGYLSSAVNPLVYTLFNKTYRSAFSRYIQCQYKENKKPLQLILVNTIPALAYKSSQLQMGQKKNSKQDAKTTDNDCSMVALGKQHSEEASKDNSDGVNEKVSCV
# Method: as §6, §1
# as §2, with “factor).” for “factor). This analysis was performed using a software developed at Cerep (Hill software) and validated by comparison with data generated by the commercial software SigmaPlot® 4.0 for Windows® (©1997 by SPSS Inc.).”
# [8] = biological target: T4, D2 receptor, human recombinant (GeneBLAzer D2-Gqo5 CHO-K1 DA) (Homo sapiens, UniProt P14416); experiment: Binding assay, dopaminergic D2 receptor ([3H]methylspiperone); settings: compound 1×10^−6 M
# T4 construct: purchased Invitrogen; host or cells: CHO-K1 (GeneBLAzer D2-Gqo5 CHO-K1 DA)
# T4 sequence (P14416 whole entry): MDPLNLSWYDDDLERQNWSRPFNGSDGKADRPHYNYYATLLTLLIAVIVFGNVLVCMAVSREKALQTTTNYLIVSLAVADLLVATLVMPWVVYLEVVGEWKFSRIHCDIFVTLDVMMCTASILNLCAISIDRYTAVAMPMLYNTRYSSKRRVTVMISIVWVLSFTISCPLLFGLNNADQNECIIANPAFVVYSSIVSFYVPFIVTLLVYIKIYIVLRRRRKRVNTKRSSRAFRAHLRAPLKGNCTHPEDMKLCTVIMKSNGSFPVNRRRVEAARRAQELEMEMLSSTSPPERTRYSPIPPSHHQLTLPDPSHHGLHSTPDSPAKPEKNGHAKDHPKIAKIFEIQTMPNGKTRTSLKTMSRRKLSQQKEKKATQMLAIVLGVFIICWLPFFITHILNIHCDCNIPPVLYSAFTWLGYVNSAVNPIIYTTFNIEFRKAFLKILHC
# Method: as §6, §1
# as §2, with “factor).” for “factor). This analysis was performed using a software developed at Cerep (Hill software) and validated by comparison with data generated by the commercial software SigmaPlot® 4.0 for Windows® (©1997 by SPSS Inc.).”
# [9] = biological target: T5, human recombinant SERT receptor (CHO cells) (Homo sapiens, UniProt P31645); experiment: Binding assay, serotonine transporter (SERT) ([3H]imipramine); settings: compound 1×10^−6 M
# T5 construct: expressed in transfected cells; host or cells: CHO cells
# T5 sequence (P31645 whole entry): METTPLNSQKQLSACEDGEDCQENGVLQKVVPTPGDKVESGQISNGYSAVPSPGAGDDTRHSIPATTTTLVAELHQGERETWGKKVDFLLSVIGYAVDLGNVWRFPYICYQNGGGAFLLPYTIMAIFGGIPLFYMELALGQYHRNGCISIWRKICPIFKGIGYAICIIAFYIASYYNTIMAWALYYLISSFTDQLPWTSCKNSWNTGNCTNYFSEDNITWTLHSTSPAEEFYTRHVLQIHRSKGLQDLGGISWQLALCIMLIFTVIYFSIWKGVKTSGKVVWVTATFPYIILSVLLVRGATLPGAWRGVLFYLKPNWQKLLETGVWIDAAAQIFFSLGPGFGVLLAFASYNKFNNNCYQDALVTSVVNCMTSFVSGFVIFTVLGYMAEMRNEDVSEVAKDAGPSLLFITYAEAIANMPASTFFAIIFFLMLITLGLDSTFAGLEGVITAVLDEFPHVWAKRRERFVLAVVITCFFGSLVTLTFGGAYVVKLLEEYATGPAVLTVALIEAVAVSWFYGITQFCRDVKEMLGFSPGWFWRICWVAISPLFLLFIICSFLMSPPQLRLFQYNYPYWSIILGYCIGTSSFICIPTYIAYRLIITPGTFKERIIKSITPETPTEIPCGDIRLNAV
# Method: as §6, §1
# as §2, with “factor).” for “factor). This analysis was performed using a software developed at Cerep (Hill software) and validated by comparison with data generated by the commercial software SigmaPlot® 4.0 for Windows® (©1997 by SPSS Inc.).”
# [10] = biological target: T6, 5-HT6 receptor, human recombinant (Homo sapiens, UniProt P50406); experiment: Binding assay, 5-HT6 receptor ([3H]LSD); settings: compound 1×10^−6 M
# T6 construct: purchased PerkinElmer
# T6 sequence (P50406 whole entry): as the sequence (P50406 whole entry) above
# Method: as §6, §1
# as §2, with “factor).” for “factor). This analysis was performed using a software developed at Cerep (Hill software) and validated by comparison with data generated by the commercial software SigmaPlot® 4.0 for Windows® (©1997 by SPSS Inc.).”
# [11] = biological target: T7, 5-HT1A receptor (rat hippocampus) (Rattus norvegicus, UniProt P19327); experiment: Binding assay, 5-HT1A receptor ([3H]8-OH-DPAT); settings: compound 1×10^−6 M
# T7 construct: hippocampus; from tissue; host or cells: rat hippocampus
# T7 sequence (P19327 1-422): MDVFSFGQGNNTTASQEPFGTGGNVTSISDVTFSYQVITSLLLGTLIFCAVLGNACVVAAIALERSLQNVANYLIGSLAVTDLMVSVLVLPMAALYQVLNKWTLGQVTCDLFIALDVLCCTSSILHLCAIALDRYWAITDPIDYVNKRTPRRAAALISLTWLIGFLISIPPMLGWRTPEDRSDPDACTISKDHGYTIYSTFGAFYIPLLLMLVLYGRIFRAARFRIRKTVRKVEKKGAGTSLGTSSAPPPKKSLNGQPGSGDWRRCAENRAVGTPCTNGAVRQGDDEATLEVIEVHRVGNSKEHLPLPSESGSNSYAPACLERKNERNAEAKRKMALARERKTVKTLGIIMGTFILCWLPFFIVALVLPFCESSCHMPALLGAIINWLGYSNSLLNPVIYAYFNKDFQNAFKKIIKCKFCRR
# Method: as §6, §1
# as §2, with “factor).” for “factor). This analysis was performed using a software developed at Cerep (Hill software) and validated by comparison with data generated by the commercial software SigmaPlot® 4.0 for Windows® (©1997 by SPSS Inc.).”
# [12] = biological target: T8, 5-HT7 receptor, human recombinant (Homo sapiens, UniProt P34969); experiment: Binding assay, 5-HT7 receptor ([3H]LSD); settings: compound 1×10^−6 M
# T8 construct: purchased PerkinElmer
# T8 sequence (P34969 whole entry): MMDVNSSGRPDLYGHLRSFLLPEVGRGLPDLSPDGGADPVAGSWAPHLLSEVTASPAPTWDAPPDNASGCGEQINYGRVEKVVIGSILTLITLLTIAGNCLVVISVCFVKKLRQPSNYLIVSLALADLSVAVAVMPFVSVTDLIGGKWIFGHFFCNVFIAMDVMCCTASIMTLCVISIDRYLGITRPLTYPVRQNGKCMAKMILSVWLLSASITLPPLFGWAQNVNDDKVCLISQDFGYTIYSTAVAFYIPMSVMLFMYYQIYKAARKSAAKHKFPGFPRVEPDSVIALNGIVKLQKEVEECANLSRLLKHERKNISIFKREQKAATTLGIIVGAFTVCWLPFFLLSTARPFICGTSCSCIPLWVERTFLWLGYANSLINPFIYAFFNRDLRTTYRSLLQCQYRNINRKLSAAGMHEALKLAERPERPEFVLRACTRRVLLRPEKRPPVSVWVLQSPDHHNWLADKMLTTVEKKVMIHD
# Method: as §6, §1
# as §2, with “factor).” for “factor). This analysis was performed using a software developed at Cerep (Hill software) and validated by comparison with data generated by the commercial software SigmaPlot® 4.0 for Windows® (©1997 by SPSS Inc.).”
smiles,measurement,setting,value
"CC(C)Oc1ccccc1OCCCCN1CCN(c2cccc3c2ccn3S(=O)(=O)c2ccccc2)CC1 [Compound 71, 1-(Benzenesulfonyl)-4-[4-[4-(2-isopropoxyphenoxy)butyl]-piperazin-1-yl]indole]",α1 [%] affinity test result,[1],40%
"O=S(=O)(c1ccccc1)n1ccc2c(N3CCN(CCCOc4ccccc4)CC3)cccc21 [Compound 12, 4-(4-(3-Phenoxypropyl)piperazin-1-yl)-1-(phenylsulphonyl)-1H-indole]",activation at 1 µM,[2],-2%
same,activation at 1 µM,[3],11%
same,inhibition at 1 µM,[4],73%
same,inhibition at 1 µM,[5],73%
same,α1 [%] affinity test result,[1],83%
"NC(=O)c1ccccc1OCCCN1CCN(c2cccc3c2ccn3Cc2ccccc2)CC1 [Compound 60, 2-[3-[4-(1-Benzylindol-4-yl)piperazin-1-yl]propoxy]benzamide]",α1 [%] affinity test result,[1],56%
"CC(C)Oc1ccccc1OCCCN1CCN(c2cccc3c2ccn3S(=O)(=O)c2ccccc2)CC1 [Compound 21, 4-(4-(3-(2-(1-Methylethoxy)phenoxy)propyl)piperazin-1-0)-1-(phenylsulphonyl)-1H-indole]",D3 [%] binding assay result,[6],86%
same,5-HT2A [%] binding assay result,[7],80%
same,D2 [%] binding assay result,[8],90%
same,α1 [%] affinity test result,[1],83%
same,SERT [%] affinity test result,[9],13%
same,5-HT6 [%] binding assay result,[10],97%
same,5-HT1A [%] binding assay result,[11],91%
same,5-HT7 [%] binding assay result,[12],78%
"O=C1CCc2ccc(OCCCCN3CCN(c4cccc5c4ccn5Cc4ccc(F)cc4)CC3)cc2N1 [Compound 65, 7-[4-[4-[1-[(4-Fluorophenyl)methyl]indol-4-yl]piperazin-1-yl]butoxy]-3,4-dihydro-1H-quinolin-2-one]",α1 [%] affinity test result,[1],59%
"O=S(=O)(c1ccccc1)n1ccc2c(N3CCN(CCCCOc4ccc(F)cc4)CC3)cccc21 [Compound 70, 1-(Benzenesulfonyl)-4-[4-[4-(4-fluorophenoxy)butyl]piperazin-1-yl]-indole]",α1 [%] affinity test result,[1],54%
"NC(=O)c1ccccc1OCCCN1CCN(c2cccc3c2ccn3Cc2cccc(Cl)c2)CC1 [Compound 68, 2-[3-[4-[1-[(3-Chlorophenyl)methyl]indol-4-yl]piperazin-1-yl]propoxy]-benzamide]",α1 [%] affinity test result,[1],56%
"O=S(=O)(c1ccccc1)n1ccc2c(N3CCN(CCCOc4ccc5ccoc5c4)CC3)cccc21 [Compound 25, 4-(4-(3-(Benzofuran-6-yloxy)propyl)piperazin-1-yl)-1-(phenylsulphonyl)-1H-indole]",activation at 1 µM,[2],-4%
same,activation at 1 µM,[3],30%
same,inhibition at 1 µM,[4],98%
same,inhibition at 1 µM,[5],75%
same,α1 [%] affinity test result,[1],25%
"NC(=O)c1ccccc1OCCCN1CCN(c2cccc3c2ccn3Cc2ccccc2F)CC1 [Compound 62, 2-[3-[4-[1-[(2-Fluorophenyl)methyl]indol-4-yl]piperazin-1-yl]propoxy]-benzamide]",α1 [%] affinity test result,[1],50%
"O=S(=O)(c1ccccc1)n1ccc2c(N3CCN(CCCCOc4ccccc4)CC3)cccc21 [Compound 69, 1(Benzenesulfonyl)-4-[4-(4-phenoxybutyl)piperazin-1-yl]indole]",α1 [%] affinity test result,[1],49%
"O=S(=O)(c1ccccc1)n1ccc2c(N3CCN(CCCOc4ccc(F)cc4)CC3)cccc21 [Compound 15, 4-(4-(3-(4-Fluorophenoxy)propyl)piperazin-1-yl)-1-(phenylsulphonyl)-1H-indole]",activation at 1 µM,[2],0%
same,activation at 1 µM,[3],11%
same,inhibition at 1 µM,[4],88%
same,inhibition at 1 µM,[5],68%
same,α1 [%] affinity test result,[1],93%
"NC(=O)c1ccccc1OCCCN1CCN(c2cccc3c2ccn3Cc2cccc(F)c2)CC1 [Compound 64, 2-[3-[4-[1-[(3-Fluorophenyl)methyl]indol-4-yl]piperazin-1-yl]propoxy]-benzamide]",α1 [%] affinity test result,[1],57%
"O=C1CCc2ccc(OCCCCN3CCN(c4cccc5c4ccn5Cc4ccccc4F)CC3)cc2N1 [Compound 61, 7-[4-[4-[1-[(2-Fluorophenyl)methyl]indol-4-yl]piperazin-1-yl]butoxy]-3,4-dihydro-1H-quinolin-2-one]",α1 [%] affinity test result,[1],13%
"NC(=O)c1ccccc1OCCCN1CCN(c2cccc3c2ccn3Cc2ccc(F)cc2)CC1 [Compound 66, 2-[3-[4-[1-[(4-Fluorophenyl)methyl]indol-4-yl]piperazin-1-yl]propoxy]-benzamide]",α1 [%] affinity test result,[1],42%
